According to patent publication US10266537B2, “3-acetylenyl-pyrazole-pyrimidine derivative, and preparation method therefor and uses thereof” (Si Chuan University, priority 2015, dated 2019):
Read-outs that look alike come from different tables or passages of the source.

Legend:
MDA-MB-231 = assay: Cell proliferation inhibition assay (MTT); format: cell-based, human; conditions: Homo sapiens, MDA-MB-231, MTT, 72 hours
PKBβ(h) = PKBβ(h) (Homo sapiens (Human), UniProt P31751); assay: Kinase inhibition assay (KinaseProfiler, 33P-ATP); format: biochemical; conditions: compound at 10 μM, read-out: The percentage of the remaining active protein
Btk = Btk (Homo sapiens (Human), UniProt Q06187); assay: Kinase inhibition assay (KinaseProfiler, 33P-ATP); format: biochemical
Chain of Btk (Q06187 whole entry): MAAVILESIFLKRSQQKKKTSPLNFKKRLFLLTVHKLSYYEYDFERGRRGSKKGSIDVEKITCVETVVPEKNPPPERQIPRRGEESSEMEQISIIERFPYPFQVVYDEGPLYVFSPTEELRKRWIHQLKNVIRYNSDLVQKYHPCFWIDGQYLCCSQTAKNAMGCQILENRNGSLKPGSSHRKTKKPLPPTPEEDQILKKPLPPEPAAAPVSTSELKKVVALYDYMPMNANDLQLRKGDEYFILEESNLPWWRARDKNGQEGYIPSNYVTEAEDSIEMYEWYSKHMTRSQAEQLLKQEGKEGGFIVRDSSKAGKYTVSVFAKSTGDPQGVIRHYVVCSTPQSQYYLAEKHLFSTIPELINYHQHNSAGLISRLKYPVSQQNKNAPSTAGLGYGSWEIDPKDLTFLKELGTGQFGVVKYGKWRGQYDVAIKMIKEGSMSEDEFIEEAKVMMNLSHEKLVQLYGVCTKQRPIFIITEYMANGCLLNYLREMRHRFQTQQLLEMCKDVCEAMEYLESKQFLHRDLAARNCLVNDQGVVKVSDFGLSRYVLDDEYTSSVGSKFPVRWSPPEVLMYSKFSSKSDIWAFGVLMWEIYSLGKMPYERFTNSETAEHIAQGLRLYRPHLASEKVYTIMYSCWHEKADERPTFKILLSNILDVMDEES

PKBα(h) = PKBα(h) (Homo sapiens (Human), UniProt P31749); assay: Kinase inhibition assay (KinaseProfiler, 33P-ATP); format: biochemical; conditions: compound at 10 μM, read-out: The percentage of the remaining active protein
FAK(h) = FAK(h) (Homo sapiens (Human), UniProt Q05397); assay: Kinase inhibition assay (KinaseProfiler, 33P-ATP); format: biochemical; conditions: compound at 10 μM, read-out: The percentage of the remaining active protein
Bmx = Bmx (Homo sapiens (Human), UniProt P51813); assay: Kinase inhibition assay (KinaseProfiler, 33P-ATP)
Chain of Bmx (P51813 whole entry): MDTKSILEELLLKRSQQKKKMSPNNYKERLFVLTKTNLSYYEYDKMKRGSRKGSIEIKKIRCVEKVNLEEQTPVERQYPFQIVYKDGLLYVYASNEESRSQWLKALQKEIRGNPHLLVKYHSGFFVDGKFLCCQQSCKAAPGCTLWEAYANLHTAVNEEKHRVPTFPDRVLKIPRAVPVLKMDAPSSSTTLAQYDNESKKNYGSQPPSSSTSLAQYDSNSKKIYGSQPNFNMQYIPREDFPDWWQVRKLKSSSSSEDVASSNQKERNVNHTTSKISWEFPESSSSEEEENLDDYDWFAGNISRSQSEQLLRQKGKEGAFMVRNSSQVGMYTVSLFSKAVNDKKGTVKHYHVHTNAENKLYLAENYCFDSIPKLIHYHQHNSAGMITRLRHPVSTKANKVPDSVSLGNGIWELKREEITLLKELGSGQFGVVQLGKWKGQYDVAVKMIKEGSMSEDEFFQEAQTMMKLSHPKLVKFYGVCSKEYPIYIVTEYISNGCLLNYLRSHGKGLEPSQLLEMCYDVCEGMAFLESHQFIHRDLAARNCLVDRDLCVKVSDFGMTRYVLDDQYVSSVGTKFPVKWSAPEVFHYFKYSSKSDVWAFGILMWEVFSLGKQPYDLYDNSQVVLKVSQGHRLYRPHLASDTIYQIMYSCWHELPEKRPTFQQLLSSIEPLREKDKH

c-RAF = c-RAF (Homo sapiens (Human), UniProt P04049); assay: Kinase inhibition assay (KinaseProfiler, 33P-ATP); format: biochemical
Chain of c-RAF (P04049 whole entry): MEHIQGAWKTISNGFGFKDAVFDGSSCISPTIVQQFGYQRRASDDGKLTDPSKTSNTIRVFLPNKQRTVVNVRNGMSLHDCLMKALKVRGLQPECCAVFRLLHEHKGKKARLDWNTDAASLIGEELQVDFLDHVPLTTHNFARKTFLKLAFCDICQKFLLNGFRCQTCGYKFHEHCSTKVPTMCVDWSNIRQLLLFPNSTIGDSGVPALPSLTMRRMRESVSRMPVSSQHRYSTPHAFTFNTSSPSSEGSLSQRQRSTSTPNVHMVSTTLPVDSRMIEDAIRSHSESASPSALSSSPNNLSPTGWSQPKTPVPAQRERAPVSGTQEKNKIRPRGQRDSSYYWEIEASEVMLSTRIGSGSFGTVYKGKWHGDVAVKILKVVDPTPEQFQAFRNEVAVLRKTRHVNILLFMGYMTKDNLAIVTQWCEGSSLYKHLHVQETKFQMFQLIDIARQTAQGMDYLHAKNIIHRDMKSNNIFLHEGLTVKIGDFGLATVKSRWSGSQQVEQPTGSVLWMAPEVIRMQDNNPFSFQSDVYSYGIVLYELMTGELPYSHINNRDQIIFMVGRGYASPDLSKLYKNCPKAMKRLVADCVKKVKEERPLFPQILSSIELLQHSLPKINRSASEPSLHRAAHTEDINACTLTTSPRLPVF

Lyn = Lyn (Homo sapiens (Human), UniProt P07948); assay: Kinase inhibition assay (KinaseProfiler, 33P-ATP); format: biochemical; conditions: Lyn(h); compound at 10 μM; read-out: The percentage of the remaining active protein
ErbB2 = ErbB2 (Homo sapiens (Human), UniProt P04626); assay: Kinase inhibition assay (KinaseProfiler, 33P-ATP); format: biochemical
EphB2 = EphB2 (Homo sapiens (Human), UniProt P29323); assay: Kinase inhibition assay (KinaseProfiler, 33P-ATP); format: biochemical
CDK7 = CDK7 (Homo sapiens (Human), UniProt P50613); assay: Kinase inhibition assay (KinaseProfiler, 33P-ATP); format: biochemical; conditions: CDK7; compound at 10 μM; read-out: The percentage of the remaining active protein
B-Raf = B-Raf (Homo sapiens (Human), UniProt P15056); assay: Kinase inhibition assay (KinaseProfiler, 33P-ATP)
Chain of B-Raf (P15056 whole entry): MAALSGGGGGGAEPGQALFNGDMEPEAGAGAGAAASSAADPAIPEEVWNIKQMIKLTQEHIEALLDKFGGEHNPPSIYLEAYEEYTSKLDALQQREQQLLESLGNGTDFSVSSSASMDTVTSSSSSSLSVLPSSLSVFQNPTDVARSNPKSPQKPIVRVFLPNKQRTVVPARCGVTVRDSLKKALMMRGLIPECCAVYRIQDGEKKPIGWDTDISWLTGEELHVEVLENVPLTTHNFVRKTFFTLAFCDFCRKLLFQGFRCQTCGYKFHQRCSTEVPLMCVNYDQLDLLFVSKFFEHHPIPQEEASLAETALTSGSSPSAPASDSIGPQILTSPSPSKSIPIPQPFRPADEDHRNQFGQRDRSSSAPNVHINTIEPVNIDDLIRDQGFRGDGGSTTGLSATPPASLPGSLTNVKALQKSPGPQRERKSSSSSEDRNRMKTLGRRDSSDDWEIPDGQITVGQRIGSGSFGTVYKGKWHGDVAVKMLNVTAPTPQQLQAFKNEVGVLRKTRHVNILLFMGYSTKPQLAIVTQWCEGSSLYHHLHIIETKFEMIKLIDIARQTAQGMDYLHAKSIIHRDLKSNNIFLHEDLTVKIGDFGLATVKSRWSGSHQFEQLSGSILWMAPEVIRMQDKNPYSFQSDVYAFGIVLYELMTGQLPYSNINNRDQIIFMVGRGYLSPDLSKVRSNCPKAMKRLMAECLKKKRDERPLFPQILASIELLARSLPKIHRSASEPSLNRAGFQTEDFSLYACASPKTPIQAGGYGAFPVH

HT29 = assay: Cell proliferation inhibition assay (MTT); format: cell-based; conditions: Homo sapiens, HT-29; HT29; MTT, 72 hours; read-out: Proliferation inhibitory activity IC50
Protocol: (§1) The cells were seeded in 96-well plates with 200 μL of cell suspension per well and incubated overnight in a cell culture medium with a cell concentration of 1 2×10^4 cells/mL. The next day, the supernatant was discarded (the suspension cell was centrifuged before it) and the cells were treated with gradient concentrations of the test compound, respectively. […] After 72 hours, add 20 μL of MTT reagent at a concentration of 5 mg/mL per well. After incubation for 2-4 h, the supernatant was discarded and 150 μL of DMSO was added to each well. […] Relative cell proliferation inhibition rate=([MUT]-[MUT])×100%/[MUT]. The experiment was repeated at least 3 times. Experimental data were expressed as mean, data statistics using t test, P<0.05 for the difference was statistically significant.

[1] = tested on: breast cancer cell line MDA-MB-231; format: in vivo; conditions: nude mice
Protocol: When the tumors grew to volumes of 200 mm^3, all the mice were randomized into groups (6 mice for each group) and dosed with indicated compounds.
Observation indexes: mouse body weight and the tumor size were measured once every three days, the tumor volume is calculated (length×width^2×0.5).

Met(h) = Met(h) (Homo sapiens (Human), UniProt P08581); assay: Kinase inhibition assay (KinaseProfiler, 33P-ATP); format: biochemical; conditions: compound at 10 μM, read-out: The percentage of the remaining active protein
TrkA = TrkA (Homo sapiens (Human), UniProt P04629); assay: Kinase inhibition assay (KinaseProfiler, 33P-ATP); format: biochemical; conditions: TrkA(h); compound at 10 μM; read-out: The percentage of the remaining active protein
Fer(h) = Fer(h) (Homo sapiens (Human), UniProt P16591); assay: Kinase inhibition assay (KinaseProfiler, 33P-ATP); format: biochemical; conditions: compound at 10 μM, read-out: The percentage of the remaining active protein
DDR2 = DDR2 (Homo sapiens (Human), UniProt Q16832); assay: Kinase inhibition assay (KinaseProfiler, 33P-ATP); format: biochemical; conditions: DDR2; ATP at Km
c-Src(1-530) = c-Src(1-530) (Homo sapiens (Human), UniProt P12931); assay: Kinase inhibition assay (KinaseProfiler, 33P-ATP)
Chain of c-Src(1-530) (P12931 whole entry, looked up): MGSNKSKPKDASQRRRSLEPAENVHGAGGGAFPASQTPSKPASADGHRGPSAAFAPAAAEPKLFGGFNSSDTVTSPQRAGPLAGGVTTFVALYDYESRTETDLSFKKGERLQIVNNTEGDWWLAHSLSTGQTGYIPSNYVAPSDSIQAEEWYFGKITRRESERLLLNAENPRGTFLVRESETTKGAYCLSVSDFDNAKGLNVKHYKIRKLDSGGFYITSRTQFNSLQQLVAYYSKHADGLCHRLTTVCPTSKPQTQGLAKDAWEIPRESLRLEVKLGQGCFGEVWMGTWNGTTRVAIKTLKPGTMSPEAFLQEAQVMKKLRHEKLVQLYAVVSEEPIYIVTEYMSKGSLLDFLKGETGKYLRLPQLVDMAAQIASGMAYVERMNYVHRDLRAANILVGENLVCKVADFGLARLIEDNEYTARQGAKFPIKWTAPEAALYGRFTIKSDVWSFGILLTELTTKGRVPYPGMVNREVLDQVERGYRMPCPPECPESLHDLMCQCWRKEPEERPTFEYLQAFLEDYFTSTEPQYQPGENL

MDA-MB-435 = assay: Cell proliferation inhibition assay (MTT); format: cell-based, human; conditions: Homo sapiens, MDA-MB-435, MTT, 72 hours
Protocol: The remaining cell lines were cultured in DMEM complete medium containing 10% fetal bovine serum (MV4-11 cells 20%), 100 U/ml penicillin, 100 μg/mL streptomycin at 5% CO2, and 37° C.
The cells were seeded in 96-well plates with 200 μL of cell suspension per well and incubated overnight in a cell culture medium with a cell concentration of 1˜2×10^4 cells/mL. The next day, the supernatant was discarded (the suspension cell was centrifuged before it) and the cells were treated with gradient concentrations of the test compound, respectively. At the same time, the drug-free negative control group and the equal volume of solvent control group, DMSO concentration of 0.1%, each dose group set up three wells, 37° C., 5% CO2 conditions. After 72 hours, add 20 μL of MTT reagent at a concentration of 5 mg/mL per well. After incubation for 2-4 h, the supernatant was discarded and 150 μL of DMSO was added to each well. […] Determine the absorbance (A) value (λ=570 nm, A value is proportional to the number of living cells), whichever is the average. […] The experiment was repeated at least 3 times. Experimental data were expressed as mean, data statistics using t test, P<0.05 for the difference was statistically significant. The inhibitory effects of the following compounds on cell proliferation were expressed as IC50 or inhibition rates.

PDGFRα = PDGFRα (Homo sapiens (Human), UniProt P16234); assay: Kinase inhibition assay (KinaseProfiler, 33P-ATP); format: biochemical
Chain of PDGFRα (P16234 24-1089): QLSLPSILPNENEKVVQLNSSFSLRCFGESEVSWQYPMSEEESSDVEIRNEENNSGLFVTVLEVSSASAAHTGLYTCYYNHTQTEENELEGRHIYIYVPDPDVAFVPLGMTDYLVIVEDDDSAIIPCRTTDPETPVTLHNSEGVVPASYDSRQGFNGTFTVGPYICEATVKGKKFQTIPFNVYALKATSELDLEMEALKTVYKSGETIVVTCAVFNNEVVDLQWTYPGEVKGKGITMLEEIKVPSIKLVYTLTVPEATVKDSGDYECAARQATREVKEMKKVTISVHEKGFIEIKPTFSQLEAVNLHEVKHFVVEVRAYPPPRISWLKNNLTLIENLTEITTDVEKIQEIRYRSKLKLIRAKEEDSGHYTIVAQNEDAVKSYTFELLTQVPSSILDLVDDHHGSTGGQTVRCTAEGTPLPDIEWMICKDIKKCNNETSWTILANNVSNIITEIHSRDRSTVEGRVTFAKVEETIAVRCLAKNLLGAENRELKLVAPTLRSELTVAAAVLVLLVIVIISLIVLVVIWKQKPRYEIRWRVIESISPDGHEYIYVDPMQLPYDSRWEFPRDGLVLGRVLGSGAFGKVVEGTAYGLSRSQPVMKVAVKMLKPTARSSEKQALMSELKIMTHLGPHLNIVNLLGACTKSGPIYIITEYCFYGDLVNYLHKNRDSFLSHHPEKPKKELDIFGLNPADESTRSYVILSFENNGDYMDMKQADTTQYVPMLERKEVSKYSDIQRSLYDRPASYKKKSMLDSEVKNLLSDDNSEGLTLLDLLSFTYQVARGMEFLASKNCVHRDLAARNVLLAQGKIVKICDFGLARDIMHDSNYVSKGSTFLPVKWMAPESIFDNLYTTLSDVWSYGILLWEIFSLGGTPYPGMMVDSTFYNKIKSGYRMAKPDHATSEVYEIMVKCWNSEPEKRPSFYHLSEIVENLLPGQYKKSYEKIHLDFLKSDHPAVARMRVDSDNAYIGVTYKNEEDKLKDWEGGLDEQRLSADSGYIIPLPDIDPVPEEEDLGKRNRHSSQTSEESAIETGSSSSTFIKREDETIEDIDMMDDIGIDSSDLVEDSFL

CHK1(h) = CHK1(h) (Homo sapiens (Human), UniProt O14757); assay: Kinase inhibition assay (KinaseProfiler, 33P-ATP); format: biochemical; conditions: compound at 10 μM, read-out: The percentage of the remaining active protein
BT474 = assay: Cell proliferation inhibition assay (MTT); format: cell-based; conditions: Homo sapiens, BT-474; BT474; MTT, 72 hours; read-out: Proliferation inhibitory activity IC50
Protocol: as §1

Yes = Yes (Homo sapiens (Human), UniProt P07947); assay: Kinase inhibition assay (KinaseProfiler, 33P-ATP); format: biochemical
Chain of Yes (P07947 whole entry): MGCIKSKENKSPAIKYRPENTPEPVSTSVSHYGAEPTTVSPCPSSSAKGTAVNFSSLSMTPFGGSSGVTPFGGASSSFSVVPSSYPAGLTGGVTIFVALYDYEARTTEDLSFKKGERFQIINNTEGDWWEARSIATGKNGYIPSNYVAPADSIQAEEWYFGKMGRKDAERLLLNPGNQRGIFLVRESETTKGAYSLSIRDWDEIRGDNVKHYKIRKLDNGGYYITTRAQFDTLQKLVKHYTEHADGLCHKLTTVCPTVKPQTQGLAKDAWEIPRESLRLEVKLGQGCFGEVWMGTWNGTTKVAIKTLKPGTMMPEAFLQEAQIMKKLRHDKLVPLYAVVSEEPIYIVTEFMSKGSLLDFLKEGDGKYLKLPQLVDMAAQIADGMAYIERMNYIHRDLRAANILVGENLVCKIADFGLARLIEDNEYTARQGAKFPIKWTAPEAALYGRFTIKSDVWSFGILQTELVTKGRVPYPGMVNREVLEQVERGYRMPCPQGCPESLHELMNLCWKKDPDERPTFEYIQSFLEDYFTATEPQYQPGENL

A549 = assay: Cell proliferation inhibition assay (MTT); format: cell-based; conditions: Homo sapiens; A549; MTT, 72 hours; read-out: Proliferation inhibitory activity IC50
Protocol: as §1

TBK1(h) = TBK1(h) (Homo sapiens (Human), UniProt Q9UHD2); assay: Kinase inhibition assay (KinaseProfiler, 33P-ATP); format: biochemical; conditions: compound at 10 μM, read-out: The percentage of the remaining active protein
Axl = Axl (Homo sapiens (Human), UniProt P30530); assay: Kinase inhibition assay (KinaseProfiler, 33P-ATP); format: biochemical; conditions: Axl(h); compound at 10 μM; read-out: The percentage of the remaining active protein
JNK1α1(h) = JNK1α1(h) (Homo sapiens (Human), UniProt P45983); assay: Kinase inhibition assay (KinaseProfiler, 33P-ATP); format: biochemical; conditions: compound at 10 μM, read-out: The percentage of the remaining active protein
IKKβ = IKKβ (Homo sapiens (Human), UniProt O14920); assay: Kinase inhibition assay (KinaseProfiler, 33P-ATP); format: biochemical; conditions: IKKβ(h); compound at 10 μM; read-out: The percentage of the remaining active protein
[2] = read-out: Proliferation inhibitory activity IC50
[3] = read-out: The percentage of the remaining active protein

Cc1ccc(NC(=O)c2cccc(C(F)(F)F)c2)cc1C#Cc1nn(C2CCN(C)CC2)c2ncnc(N)c12 [Compound 31]
IC50 (MDA-MB-231; [2]): 15.3 nM | IC50 (MDA-MB-231; read-out: Proliferative inhibitory activity MDA-MB-231 (IC50 class)): < 100 nM | remaining activity at 10 µM (PKBβ(h)): 14% | remaining activity at 10 µM (Btk; BTK(h), compound at 10 μM, read-out: The percentage of the remaining active protein): -3% | IC50 (Btk; Btk, ATP at Km): 127 nM | remaining activity at 10 µM (PKBα(h)): 56% | remaining activity at 10 µM (FAK(h)): 26% | IC50 (Bmx): 18 nM | remaining activity at 10 µM (Bmx; [3]): 0% | remaining activity at 10 µM (c-RAF; c-RAF(h), compound at 10 μM, read-out: The percentage of the remaining active protein): 2% | IC50 (c-RAF; c-RAF, ATP at Km): 19 nM | remaining activity at 10 µM (Lyn): 0% | remaining activity at 10 µM (ErbB2; ErbB2(h), compound at 10 μM, read-out: The percentage of the remaining active protein): 2% | IC50 (ErbB2; ErbB2, ATP at Km): 251 nM | remaining activity at 10 µM (EphB2; EphB2(h), compound at 10 μM, read-out: The percentage of the remaining active protein): -1% | IC50 (EphB2; EphB2, ATP at Km): 10 nM | remaining activity at 10 µM (CDK7): 70% | IC50 (B-Raf; B-Raf, ATP at Km): 22 nM | remaining activity at 10 µM (B-Raf; [3]): 1% | IC50 (HT29): 350 nM | tumor growth inhibition ([1]; MDA-MB-231 subcutaneous tumor, 20 mg/kg per day, oral): significantly inhibit tumor growth | inhibitory effect compared to positive control ([1]; MDA-MB-231 subcutaneous tumor, vs paclitaxel 10 mg/kg per week tail vein, dasatinib 40 mg/kg daily oral): superior inhibitory effect compared to positive control (paclitaxel and dasatinib) | toxicity / side effects (weight loss, rash, diarrhea) during administration ([1]; test dose range, daily oral): low toxicity | remaining activity at 10 µM (Met(h)): 102% | remaining activity at 10 µM (TrkA): 14% | remaining activity at 10 µM (Fer(h)): 92% | IC50 (DDR2): 74 nM | IC50 (c-Src(1-530); c-Src(1-530), ATP at Km): 2 nM | remaining activity at 10 µM (c-Src(1-530); [3]): 0% | IC50 (MDA-MB-435; [2]): 14.7 nM | IC50 (MDA-MB-435; read-out: Proliferative inhibitory activity MDA-MB-435 (IC50 class)): < 100 nM | remaining activity at 10 µM (PDGFRα; PDGFRα(h), compound at 10 μM, read-out: The percentage of the remaining active protein): 3% | IC50 (PDGFRα; PDGFRα, ATP at Km): 396 nM | remaining activity at 10 µM (CHK1(h)): 100% | IC50 (BT474): > 10000 nM | remaining activity at 10 µM (Yes; Yes(h), compound at 10 μM, read-out: The percentage of the remaining active protein): 0% | IC50 (Yes; Yes, ATP at Km): < 1 nM | IC50 (A549): 1420 nM | remaining activity at 10 µM (TBK1(h)): 83% | remaining activity at 10 µM (Axl): 15% | remaining activity at 10 µM (JNK1α1(h)): 36% | remaining activity at 10 µM (IKKβ): 42%
